According to ChEMBL document CHEMBL3507680, “University of Dundee, Gates Library screen for HepG2 cell viability”:

Experiment: Human HepG2 cell viability assay in 384 well format
Format: toxicity, cell-based
Set-up: dose 125 nL, time 70.5 hour; concentration not given beside the values
Settings: HepG2 cells, read-out: Inhibition

Compound	cytotoxicity at 70.5 h [%]
COc1ccc(-c2csc(N)c2C#N)cc1OC	-13
COCC1CN(Cc2ccsc2)Cc2cnn(C)c21 (configuration not stated)	-2.85
N#Cc1ccc(C(=O)N2C[C@H](OCc3cccnc3)[C@H]3COC[C@H]32)cc1	3.47
O=C1CC2(CCN(c3nncs3)C2)CN1c1cccc(F)c1 (configuration not stated)	-3.52
O=C(c1ccc[nH]1)N1C[C@H](OCc2ccccn2)[C@H]2COC[C@H]21	-5.92
O=c1ccc2c([nH]1)CCC(NCc1ccncc1)C2 (configuration not stated)	-2.51
O=C1CC2(CCN(c3nncs3)C2)CN1c1cncnc1 (configuration not stated)	-0.39
CCCC(=O)N1CCC2(CC1)CN(Cc1cccc(C)n1)C(=O)CO2	0.856
COc1ccc(Br)c(C(=O)NCC2CCN(C(=O)c3ccoc3)CC2)c1	0.959
CC(=O)NCCN1CCC(c2cccs2)CC1	0.738
O=C(NCCN1CCC(c2cccs2)CC1)Nc1cccs1	-3.14
CSCC(C)(O)CNC(=O)c1cc(Br)ccc1Cl (configuration not stated)	16.5
O=S(=O)(NCC1(O)CCOc2ccccc21)c1cccs1 (configuration not stated)	3.15
COC(=O)c1sccc1S(=O)(=O)NCC1(O)CCOc2ccccc21 (configuration not stated)	-4.94
O=S(=O)(NCC1(O)CCOc2ccccc21)c1ccc(Br)s1 (configuration not stated)	3.29
O=C(c1cnn2c1OCCC2)N1CCN(C/C=C/c2ccccc2)CC1	7.17
O=C(NCc1ccccn1)c1nnn(-c2ccc(Br)cc2)n1	10.5
Cn1c(C(F)(F)F)nn(CCNC(=O)c2cnc3ccccc3n2)c1=O	-2.86
COC(=O)c1sccc1S(=O)(=O)N1CCC(Oc2ncccc2Cl)CC1	2.59
N#Cc1ccc(OC2CCN(C(=O)c3ccc4c(c3)OCO4)CC2)nc1	17.3
CN(C)S(=O)(=O)N1CCC(Oc2cnccn2)CC1	-0.386
O=C(c1ccc2c(c1)OCO2)N1CCCSCC1CN1CCCC1 (configuration not stated)	0.782
COCCN(Cc1ccoc1)C(=O)c1ccccc1Cl	6.96

Compound	cytotoxicity at 70.5 h [%]
Cc1cc(S(=O)(=O)N2CCC(S(C)(=O)=O)CC2)ccc1F	-0.414
COc1ccc(S(=O)(=O)N2CCC(S(C)(=O)=O)CC2)cc1C	5.77
O=C(CC1CCCC1)NCCn1ccc(-c2ccccn2)n1	4.96
Cn1nc(CNC(=O)C2CCCC2)cc1C1CC1	38.9
O=S(=O)(Nc1cnn(C2CCOCC2)c1)c1ccc(F)c(F)c1	1.31
O=S(=O)(Nc1cnn(C2CCOCC2)c1)c1ccc2c(c1)CCO2	-5.29
O=C(NCCC1=CCCCC1)C1CCCN(c2ccc3nncn3n2)C1 (configuration not stated)	9.17
O=C(CSC1CCc2ccccc2NC1=O)NCCc1ccco1 (configuration not stated)	7.74
CCOC(=O)N1CCN(C(=O)c2sc(-c3ccccc3F)nc2C)CC1	-11.8
COc1ccccc1NC(=O)CSC1CCc2ccccc2NC1=O (configuration not stated)	-10.1
O=C(Cn1ccc2c(Cl)cccc21)N1CCC2(CC1)OCCO2	-4.3
CC(NC(=O)N1CCN(c2ccc(Cl)cc2)CC1)C(=O)N1CCSCC1 (configuration not stated)	-12.6
O=C(Cn1cc(-c2ccccc2)ncc1=O)Nc1ccncc1	-13.4
CC(C)C(NC(=O)N1CCN(c2ccc(Cl)cc2)CC1)C(=O)NC1CC1 (configuration not stated)	-6.65
O=C1CC(c2ccsc2)c2sc(C(=O)O)c(-c3ccccc3)c2N1 (configuration not stated)	-11.4
Cc1[nH]/c(=N\C(=O)c2csc(NC3CC3)n2)sc1C	-5.91
CCOc1ccc(Cl)cc1CNCCCn1ccnc1	23.2
CCOc1cccc(CNc2ccccc2C(=O)OC)c1O	3.64
O=S(=O)(NC1=NCN(CCc2cccs2)CN1)c1ccc(F)cc1	-20.8
CCCNC(=O)c1cc2c([nH]c1=O)CC(c1cccs1)CC2=O (configuration not stated)	-19.4
Cc1cccc(N2Cc3nc(=O)[nH]n3C2=O)c1	-14.3
Cc1c(C)n(-c2ccccn2)c2nc3c(c(N)c12)CCCC3	-9.17
O=C1N(c2ccccc2)Cc2nc(=O)[nH]n21	-27.8

Compound	cytotoxicity at 70.5 h [%]
CNc1oc(-c2ccc(OC)c(S(=O)(=O)N3CCCCC3)c2)nc1C#N	-18
CSCCC(CO)NC(=O)c1sc(-c2ccccc2Cl)nc1C (configuration not stated)	-23.9
CC(C)c1nnc2ccc(N3CCC(C(N)=O)CC3)nn12	3.97
O=C(Cc1csc(-c2ccc(Cl)cc2)n1)NC(C(=O)O)c1ccccc1 (configuration not stated)	-9.96
COc1ccc(N2CCC(C(=O)/N=c3/[nH]ccs3)CC2)nn1	-7.23
CNc1oc(-c2cc(S(=O)(=O)N3CCCCCC3)c(C)o2)nc1C#N	-20.9
COC(=O)CNC(=O)CSCc1nc(O)c2cc(C(C)C)sc2n1	-14.3
CCOC(=O)N1CCN(c2nc(NC)c3ccccc3n2)CC1	-15.5
Cc1ccc(-c2csc(N)c2C#N)cc1	-16.3
Cc1ccc(CNS(=O)(=O)CC2=NC(=O)n3cccc3C2=O)cc1	-10.8
CCOc1ccc(-n2nnc(C(=O)O)c2-c2ccncc2)cc1	12.9
Cc1cc2nc(SCC(=O)N3CCCC3)n(-c3ccccc3)c(=O)c2[nH]1	-21.9
Cc1ccc(F)c(-n2nnc(C(=O)O)c2-c2ccncc2)c1	-5.82
CCOc1ccc(-n2nnc(C(=O)O)c2-c2ccccn2)cc1	-11.9
CCN(c1ccc(C(=O)NCCCN2CCCC2)cc1)S(=O)(=O)CC	-8.8
CC(C)n1c(=O)nc2n1C(=O)N(c1ccc(F)cc1)C2	-10.1
O=C(COc1coc(CN2CCCCC2)cc1=O)NCc1ccccc1	-15.4
COc1cccc2ccn(CCC(=O)N3CCCC(C(=O)O)C3)c12 (configuration not stated)	-22.2
CNc1nc2c(s1)C(c1c(F)cccc1Cl)CC(=O)N2 (configuration not stated)	-6.14
Nc1cc(-c2c[nH]nc2C2CCCN2CCCc2ccccc2)ccn1 (configuration not stated)	-1.57
CCn1nccc1CN(C)C(=O)Cn1nc(C)c(C)c1C	-4.43
CC(C)Nc1nc(O)cc(C(C)n2ncc3ccccc3c2=O)n1 (configuration not stated)	-5.33
CCN(CC)c1nc(O)cc(C(C)n2ncc3ccccc3c2=O)n1 (configuration not stated)	-4.03

Compound	cytotoxicity at 70.5 h [%]
Cc1cc(C(F)(F)F)nc(C2COCCN2S(C)(=O)=O)n1 (configuration not stated)	-6.03
CC(C)N1CC(C(=O)NCc2ccc(S(=O)(=O)N(C)C)cc2)CC1=O (configuration not stated)	-7.28
CNc1cccc(CC2COCCN(C(=O)c3cncs3)C2)n1 (configuration not stated)	1.43
Cc1ccc(C2CCCN(S(=O)(=O)N3CCOCC3)C2)nc1 (configuration not stated)	-4.54
Cc1nc(NCC2CCOCC2)cc(C2CCN2S(C)(=O)=O)n1 (configuration not stated)	-1.73
CN(CC1(C)COC1)C(=O)c1cc(-c2ccnn2C)nc2ccccc12	-0.845
Cn1cc(CN2CCC(c3cc(CCO)[nH]n3)C2)cn1 (configuration not stated)	-8.16
Cc1cc(C)nc(C2CCN(C(=O)CO)CC2)n1	-6.07
CO[C@@H]1CC[C@@H](N(C)C(=O)c2cn3cc(C)ccc3n2)[C@H]1O	-9
O=C(O)c1cccc(CN2CCCC(c3ccn[nH]3)C2)c1 (configuration not stated)	-4.41
CC1(C(=O)N2CCN(c3ncccn3)CC2)CNCCO1 (configuration not stated)	-8.07
O=C(O)c1ccccc1CN1CCCC(Cc2ccn[nH]2)C1 (configuration not stated)	-8.52
CSc1nsc(NC(=O)c2cc(C3CC3)nn2C)n1	-6.09
CCCc1cc(C(=O)Nc2nc(SC)ns2)n(C)n1	-13.2
O=C(O)c1cccc(CN2CCCC(Cc3ccn[nH]3)C2)c1 (configuration not stated)	-10.2
CN1CCC(c2nnc3n2CCN(S(=O)(=O)c2ccccc2Cl)C3)CC1	-5.89
CC(C)Nc1nc(O)cc(C2CC(=O)N(C3CCCCC3)C2)n1 (configuration not stated)	-3.62
COCCC(=O)NCCc1nc(N(C)C)ncc1-c1ccncc1	-3.62
Cc1noc(C)c1C(=O)N1CCC2(CCc3ccccc3C(=O)N2)C1 (configuration not stated)	-4.04
O=C(C1CCCCC1)N1CCCC([C@@H]2C[C@H](C(F)F)n3ncnc3N2)C1 (some centres not stated)	-5.82
Cc1cnc(-c2nc(C3CCN(Cc4ccccc4O)CC3)no2)cn1	-4.91
Cc1cnc(-c2nc(C3CCN(Cc4ccccc4Cl)CC3)no2)cn1	-3.18
CS(=O)(=O)c1cc(Cl)cnc1C1CCN(C(=O)C2CCOCC2)CC1	9.7

Compound	cytotoxicity at 70.5 h [%]
Cc1nc[nH]c1CN(Cc1ccc(F)cc1)C1CC(C)(C)NC(C)(C)C1	-2.59
Cn1cc(C2=NOC(C(=O)NC3(c4ccccc4F)CCCC3)C2)cn1 (configuration not stated)	12.6
CS(=O)(=O)c1cc(Cl)cnc1C1CCN(C(=O)C2CC2)CC1	-0.478
Cc1ccc(S(=O)(=O)N2CC[C@@H]3C[C@H](NC(=O)c4ccncc4)[C@@H]32)cc1	-2.83
Cc1ccc(S(=O)(=O)N2CC[C@@H]3C[C@H](NC(=O)c4[nH]ncc4Br)[C@@H]32)cc1	-5.6
CC(CNCc1ccncc1)Oc1ccccn1 (configuration not stated)	-12.5
CCOC(=O)N1CCN(c2nc(NCCCO)c3ccccc3n2)CC1	-21.9
CC(O)CNCc1ccc(OCc2ccc3c(c2)OCCO3)cc1 (configuration not stated)	19.4
CC(C)NC(=O)c1ccc2c(c1)C1(CCN(C)CC1)C(=O)N2	2.1
CC(C)NC(=O)N1C[C@H](OCc2cccnc2)[C@H]2COC[C@H]21	0.936
O=C(CC1CCC2(CC1)CCN(Cc1ccncc1)CC2)N1CCCC1	6.54
O=c1ccc2c([nH]1)CCC(NCc1ccc(F)cc1)C2 (configuration not stated)	-5.16
CNC(=O)CN1CC[C@H]2CN(C(=O)c3cccn3C)C[C@H]2C1	-5.44
O=C(Cc1ccccn1)N1C[C@H](OCc2cccnc2)[C@H]2COC[C@H]21	0.247
c1cncc(C2COC3(CCN(CC4CCOCC4)CC3)C2)c1 (configuration not stated)	1.21
CN(C)CCN1CCN(Cc2ccco2)Cc2cccnc21	-4.07
c1cncc(CN2CCC3(CC2)CC(c2cccnc2)CO3)c1 (configuration not stated)	-6.23
CCn1c(CN2CCCC(O)(c3ccc(F)cc3)CC2)cnc1SC (configuration not stated)	-5.35
CCn1c(CN2CCC(O)(c3ccc4c(c3)OCO4)CC2)cnc1SC	1.92
COc1ccc(C2C3=C(COC3=O)Nc3[nH]nc(C)c32)cc1OC (configuration not stated)	-22.8
